# Reference: a melting point compilation (Tetko et al.)
row,SMILES,melting point [°C]
1,N#Cc1cc(F)ccc1Cl,84
2,FC(F)(F)c1cncc(C(F)(F)F)c1,37
3,O=Cc1cccc(-c2nccs2)c1,67 to 68
4,OCc1ccccc1C(c1ccc(O)cc1)c1ccc(O)cc1,202
5,CC(C)(C)OC(=O)N[C@@H](C=O)Cc1ccccc1,85 to 89
6,CN(N)c1ccc(Cl)cc1[N+](=O)[O-],91
7,CCN(CC)c1nc(C)cc(OP(=S)(OC)OC)n1,21
8,Cn1nc(C(C)(C)C)cc1N,157
9,C[C@]12CC[C@H]3[C@@H](CCC4=CC(=O)CC[C@@]43C)[C@@H]1CC[C@@H]2C(=O)O,254
10,CC(C)n1cc(C(N)=S)c(=O)n(Cc2ccccc2)c1=O,173 to 175
11,"CC12CCC3C(CC=C4CC(O)CCC43C)C1CCC2=O (single isomer, unassigned; (+))",146 to 151
12,CC(C)CS(=O)(=O)CC(C)C,17
13,O=C1CC(C(F)(F)F)=NN1c1ccccc1,193
14,c1ccc(C(c2ccccc2)c2ccccn2)cc1,54 to 61
15,COc1ccc(Cl)cc1I,48
16,CC(=O)c1ccc2c(c1)Cc1ccccc1-2,130
17,CNC(=O)Oc1ccccc1C1OCCO1,114
18,O=C(O)C=Cc1ccco1,143
19,CCCS(=O)(=O)CCC,29.5
20,c1ccc(-c2oc(-c3ccccc3)c(-c3ccccc3)c2-c2ccccc2)cc1,175
21,COc1ccccc1-c1ccc(C=NO)o1,128
22,CCCCCCC(C)CCCCCC,-37.2
23,COc1cc(C)c(Cl)cc1S(N)(=O)=O,170
24,Cc1ccc2nc(O)cc(C)c2c1,240
25,COc1cc(CCN)cc(OC)c1OC,35.5
26,CC(C)(C)OC(=O)NC(Cc1ccc(OCc2ccccc2)cc1)C(=O)O (centres undefined),109

row,SMILES,melting point [°C]
1,Nc1ccc(C/C(=N/O)c2ccc(N)cc2)cc1,146 to 147
2,CCOP(=O)(OCC)Oc1c2cccc1Cc1cccc(c1O)Cc1cccc(c1OP(=O)(OCC)OCC)Cc1cccc(c1O)C2,219 to 224
3,O=C1Cc2cc(Br)ccc2N1,219 to 221
4,CC(C)CCCCCCCCCCCO,10.5
5,Cc1ccc(S(C)(=O)=O)cc1[N+](=O)[O-],121
6,CC(=O)/C=C(\C)c1ccc(-c2ccccc2)cc1,132 to 134
7,Nc1nc(Br)c2ccccc2c1Cc1ccccc1,155 to 156
8,Nc1ccc(Cn2ccnc2)cc1,128 to 130
9,CC12CCC3C(CCC4CC(O)CCC43C)C1CCC2O (centres undefined),167
10,CC1=NN(c2ccccc2)C(=O)C1C(=O)c1ccccc1 (centres undefined),90 to 92
11,CNC(=O)CCl,46
12,CC(C(=O)O)=C(c1ccccc1)c1ccccc1,163
13,Cc1ccc(CCl)c2ccccc12,58 to 60
14,C=C1C(=O)C23C(OC(C)=O)CC4C(C)(C)CCC(OC(C)=O)C4(C)C2C(OC(C)=O)CC1(O)C3OC(C)=O (centres undefined),278
15,CNC(=O)Cc1ccccc1,55 to 59
16,O=C(O)c1scc2c1CCCC2,203 to 205
17,Cc1ccc(S(=O)(=O)OCC2OC(C)(C)OC2COS(=O)(=O)c2ccc(C)cc2)cc1 (centres undefined),92
18,NS(=O)(=O)c1cc(-c2nnn[nH]2)c(NCc2cccs2)cc1Cl,220
19,CCOC1OC(=O)c2c(OC)cccc21 (centres undefined),67
20,O=C(O)CCCCc1cccs1,41
21,CCOC(=O)c1cc2cc3c4c(c2oc1=O)CCCN4CCC3,140 to 144
22,Cc1c(NN=C2C(=O)NN=C2c2c(O)c3ccccc3n(C)c2=O)c(=O)n(-c2ccccc2)n1C,200
23,Cc1ccc(NC(=S)Nc2ccc(C)cc2)cc1,183
24,Oc1ccc(Cl)c2cccnc12,130
25,CO/C(C)=C(\C#N)c1ccccc1[N+](=O)[O-],66 to 69
26,O=C(C=CC(=O)OCC(F)(F)C(F)(F)C(F)(F)C(F)(F)C(F)(F)C(F)(F)C(F)(F)F)OCC(F)(F)C(F)(F)C(F)(F)C(F)(F)C(F)(F)C(F)(F)C(F)(F)F,82 to 84

row,SMILES,melting point [°C]
1,O=P(O)(O)CCP(=O)(O)O,218
2,Nc1c(Br)cc(Br)cc1C(=O)c1ccccc1,98
3,CC1(C)CCC(=O)CC1,42
4,OC1CCC(Cl)CC1 (centres undefined),82.5
5,COP(=S)(OC)Oc1nc(Cl)c(Cl)cc1Cl,46
6,[O-][N+](=Nc1ccccc1)c1ccc(N=Nc2ccccc2)cc1,130 to 131
7,CSc1ncc(Br)c(C(=O)O)n1,156 to 157
8,NCCCCC(=O)O,158 to 161
9,CCOc1cc([N+](=O)[O-])c(OCC)cc1N1CCOCC1,139 to 141
10,Clc1nc[nH]c1Cl,185 to 186
11,COc1ccc(OC)c(N=C=O)c1,40
12,CCCCCCCCCCCCCCCCCCCCC1CCCCC1,48.5
13,Cc1nc(/C(C#N)=C\c2ccc(Cl)cc2Cl)sc1/N=N/c1ccc(F)cc1,138 to 140
14,O=C=N[Si](N=C=O)(N=C=O)N=C=O,26
15,Cc1nc(C)c(CO)s1,56 to 57
16,c1cc(N2CCNCC2)ccn1,142 to 144
17,NC(=S)c1ccc(C2SCCS2)cc1,174
18,COc1ccc2c(c1)/C(=N/Nc1ccc([N+](=O)[O-])cc1[N+](=O)[O-])C2,220 to 222
19,c1ccc(CON=C(c2cc3ccccc3o2)c2cc3ccccc3o2)cc1,127 to 128
20,Nc1cc(-c2ccc(F)cc2)nc(N)n1,164 to 166
21,Cc1ccc2c(c1Cc1ccccc1)CCC1C2CCC2CCCCC21C (centres undefined),95
22,CCCCCCCCCCCCCC(=O)OCc1ccccc1,20.5
23,Cc1ccc(C(=O)O)cc1C(F)(F)F,177
24,O=C(O)C(Br)c1ccccc1Cl (centres undefined),107
25,CC(C)(C)OC(=O)NO,57
26,Brc1ccncc1,0.5

row,SMILES,melting point [°C]
1,CSc1nc2[nH]c(Cc3ccccc3)nc(=O)c2n1C,286
2,O=C(n1ccnc1)C(F)(F)C(F)(F)C(F)(F)F,11
3,COc1cccc(N)c1C(=O)O,85
4,Cc1ccc(S(=O)(=O)OCC2CO2)cc1 (centres undefined),45 to 48
5,Cc1cccc(C)c2cc(C(C)C)cc1-2,32.3
6,O=C(O)CCCc1ccc(Br)cc1,67 to 69
7,O=C(O)Cc1ccc(OCc2ccccc2)cc1,123 to 124
8,C=CC12CN(C)C3C4COC(CC41)C1(C(=O)Nc4ccccc41)C32 (centres undefined),178
9,O=Cc1cc(F)c(O)cc1F,147
10,COC(C(=O)O)c1ccccc1 (racemic),68 to 72
11,O=S(=O)(Cl)c1cc(C(F)(F)F)ccc1N1CCOCC1,81.5 to 84
12,CC1OC(Oc2c[nH]c3ccc(Br)c(Cl)c23)C(O)C(O)C1O (centres undefined),213 to 217
13,COc1cc(CC(=O)O)cc(OC)c1,103
14,CCOC,-113
15,Brc1cccc2cc[nH]c12,46 to 47
16,Oc1ccc(OCc2ccccc2)cc1,122
17,COc1cc2c(cc1OC)CC2,91
18,CCCCCCCCCCCCCC=CC(O)C(CO)NC(=O)CCCCCCCCCCCCCCCCC (centres undefined),99 to 101
19,CSC,-83
20,COc1cc(CC2c3cc(OC)c(OC)cc3CCN2C)c(Oc2cc3c(cc2OC)-c2c(OC)c(OC)cc4c2C(C3)N(C)CC4)cc1OC (centres undefined),160
21,Nc1nnc(SCC(=O)Nc2ccc3c(c2)OCO3)s1,196 to 198
22,CCCCCCCCCCC(C)O (centres undefined),19
23,O=C(O)c1cc(F)c(F)c(F)c1F,88 to 89
24,CNN=C(N)C(S)=NNC,185
25,CC(C)=C1C2CCC1c1ccccc12,90
26,COc1ccccc1C=N/N=c1/sc(C(C)=O)nn1-c1ccccc1[N+](=O)[O-],178

row,SMILES,melting point [°C]
1,O=c1[nH]c(-c2ccccc2)cc2ccncc12,239
2,NC(=O)N=NC(N)=O,195 to 202
3,CCCCOCCOCCCC,-69.1
4,Ic1ccc(N(c2ccc(I)cc2)c2ccc(I)cc2)cc1,167
5,NCc1ccc(Cl)nc1,30
6,CC(=O)Nc1ccc(-c2ccc(N(Nc3ccccc3)C(C)=O)cc2)cc1,233
7,COC(=O)C(=O)CC(C)=O,63 to 64
8,c1ccc2c(c1)OCCOCCOCCOCCOc1ccccc1OCCOCCOCCOCCO2,104 to 108
9,FCC(F)(F)F,-101
10,CN(C)CCC=C1c2ccccc2COc2ccc(CC(=O)O)cc21,248
11,Cc1nc2ccccc2c(C(=O)O)c1N,204 to 205
12,COc1ccc(C=CC(=O)c2ccc(OC)cc2OC)cc1,97
13,COc1cc(CC(=O)O)cc(OC)c1OC,120
14,CC1(C)OC(=O)C(=Cc2ccc(Br)o2)C(=O)O1,116
15,NC(=S)C1CCN(C(=O)OCc2ccccc2)CC1,128 to 130
16,O=S(=O)(Cl)c1ccccc1C(F)(F)F,23
17,Oc1ccc2ccc(O)cc2c1,193
18,N#Cc1cccc(C[C@H](NC(=O)OCC2c3ccccc3-c3ccccc32)C(=O)O)c1,116
19,CC/C=C(\C)C(=O)O,24.4
20,Nc1cccc(C(F)(F)F)n1,88
21,Cc1ccc(-c2onc(C(=O)c3cccs3)c2S(=O)(=O)c2ccccc2)cc1,128
22,C=C(C)C(=C)C,-76
23,COc1ccc(F)c(C=O)c1OC,46
24,O=C(NO)c1ccccc1,128
25,O=C(Nc1ccc2cc(OC(=O)c3ccccc3)ccc2c1)c1ccccc1,224 to 229
